According to patent publication US11534434B2 (Karuna Therapeutics, Inc., priority 2019, dated 2022):

Legend:
[1] = Human liver microsome stability; format: in vitro ADME; conditions: human liver microsomes; for microsomal CLint at 100 nM: apparent intrinsic clearance, no unit in table (μL/min/pmol, μL/min/mg or μL/min/Mcell); for Parent at 60 min (%) / half-life at 100 nM: 100 nM, 37° C., tartrate salt
Description: Human Liver Microsome Stability
Test compounds were dissolved in DMSO to prepare 10 mM stock solutions, diluted to a final test concentration of 100 nM, and incubated at 37° C. with human liver microsomes. Metabolic stability, expressed as a percent of the parent compound remaining, was assessed at 0, 15, 30, 45, and 60 minutes and calculated by comparing the compound's peak area at the time point relative to that at time-0. The half-life (T1/2) was estimated from the slope of the initial linear range of the logarithmic curve of compound remaining (%) vs. time, assuming first-order kinetics. The apparent intrinsic clearance (CLint, in μL/min/pmol, μL/min/mg or μL/min/Mcell) was calculated according to the following formula: CLint=0.693 T1/2*(mg protein/μL or million cells/μL or pmol CYP isoyme/μL).

human M3 mAChR = molecular target: T1, human M3 mAChR (Homo sapiens, UniProt P20309); assay: Whole-cell functional agonist activity, FLIPR Ca2+ release, U2OS-based human M3 mAChR stable cell line; conditions: for EC50: agonist, FLIPR Ca2+ release, U2OS human M3 cells; for Emax: top of curve, % activity vs MAX control ligand, FLIPR Ca2+
T1 construct: expressed in transfected cells
Description: Whole-cell functional agonist activity in cells expressing recombinant human muscarinic receptor subtypes.
ThermoFisher's FLIPR™ (Fluorescence Imaging Plate Reader) was used to quantify Ca^2+ release, a functional effect associated with Gaq-coupled M1 and M5 mAChRs. CisBio's phospho-ERK (pERK) Thr202/Tyr204 was used to evaluate Gai/o-coupled M2 and M4 mAChRs responses.
One day before the assay, M1, M3, and M5 cells were thawed out and plated at 10,000 cells/well into black-walled, clear-bottom, Poly-D-lysine coated 384-well microplates and incubated at 37° C. and 5% CO2 in MEME+10% FBS+1× penicillin/streptomycin/glutamine, for the M1 and M3 cell lines and F-12+10% FBS+1× penicillin/streptomycin/glutamine for the M5 cell line. On the day of the test, the media was aspirated and replaced with […] fluo-4 dye loading buffer (1× dye, 1× additive A and 2.5 mM fresh probenecid in HBSS and 20 mM HEPES) and incubated at 37° C. and 5% CO2 for 45 minutes. After the incubation, cells were removed from the incubator, […] of HBSS and 20 mM HEPES was added for a total volume of […], and the cells were allowed to equilibrate at room temperature for 15 minutes in the dark before compounds were applied, by adding 4× compound solution in […] of HBSS, 0.4% DMSO and 20 mM HEPES buffer (made from a 10 mM compound stock solution in 100% DMSO), and responses were recorded for 2 minutes in FLIPR Tetra after compound administration. The M1 and M5 responses were analyzed using the CBIS data analysis suite (ChemInnovation, CA).
Percentage activity was calculated using the following formula: % Activity=100%×(mean RFU of test sample mean RFU of vehicle control)/(mean MAX RFU control ligand mean RFU of vehicle control) where RFU is relative fluorescence unit. The M2 and the M4 cells were thawed out one day before the assay and plated at 2,000 and 1,000 cells per well, respectively, in […] of DMEM/F12+10% FBS in ProxiPlate 384-well white-walled, white-bottom tissue culture-treated plates and incubated at 37° C. and 5% CO2 overnight. Before the assay, cells were serum-starved at 37° C. in 5% CO2 for 4 hours by replacing culture media with […] of F12 media with 8 mM HEPES. The pERK assay was run according to assay kit instructions with minor volume modifications outlined below.

[2] = Storage stability of the tartrate salt (reanalysis by LC-MS, 1H NMR, 19F NMR); format: physicochemical; conditions: six months of storage at 0° C.; LC-MS, 1H NMR, 19F NMR
Description: The tartrate salt of the title compound was unstable at test storage conditions. Although the initial NMR spectra were clean, the LCMS purity was about 75%. After storage at 0° C. for six months, the sample was reanalyzed by ^1H-NMR, ^19F-NMR, and LC-MS.

T1 sequence (P20309 whole entry): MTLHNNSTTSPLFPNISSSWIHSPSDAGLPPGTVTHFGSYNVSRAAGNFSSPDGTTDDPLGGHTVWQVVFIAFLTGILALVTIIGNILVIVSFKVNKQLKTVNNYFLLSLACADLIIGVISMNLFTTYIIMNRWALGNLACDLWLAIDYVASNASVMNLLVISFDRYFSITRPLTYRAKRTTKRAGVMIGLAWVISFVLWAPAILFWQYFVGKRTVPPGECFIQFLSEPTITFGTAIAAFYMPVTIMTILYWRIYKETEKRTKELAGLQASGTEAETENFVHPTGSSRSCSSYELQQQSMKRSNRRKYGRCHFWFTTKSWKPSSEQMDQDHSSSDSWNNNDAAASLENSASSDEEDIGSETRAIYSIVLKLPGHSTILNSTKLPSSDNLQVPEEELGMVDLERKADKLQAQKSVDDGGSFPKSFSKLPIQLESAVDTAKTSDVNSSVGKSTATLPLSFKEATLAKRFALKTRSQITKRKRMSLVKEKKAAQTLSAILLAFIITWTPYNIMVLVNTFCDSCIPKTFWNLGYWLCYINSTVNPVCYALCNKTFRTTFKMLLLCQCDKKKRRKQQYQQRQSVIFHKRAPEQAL

microsomal CLint at 100 nM [1]	Parent at 60 min (%) [1]	half-life at 100 nM [1]	EC50 (human M3 mAChR)	Emax (human M3 mAChR)	storage stability of tartrate salt [2]	Compound
447 µL/min/mg	7%	16 min	> 10 µM	16%	no meaningful changes were observed	CN1CCC=C(c2nsnc2OCCCCCC(F)(F)F)C1 [Example 1, 3-(1-Methyl-1,2,5,6-tetrahydropyridin-3-yl)-4-((6,6,6-trifluorohexyl)oxy)-1,2,5-thiadiazole]
413 µL/min/mg	8%	17 min	> 10 µM	11%		CN1CCC=C(c2nsnc2OCCCCCC(F)F)C1 [Example 6, 3-((6,6-difluorohexyl)oxy)-4-(1-methyl-1,2,5,6-tetrahydropyridin-3-yl)-1,2,5-thiadiazole]
553 µL/min/mg	3%	13 min	> 10 µM	7%		CN1CCC=C(c2nsnc2OCCCCCCF)C1 [Example 7, 3-((6-Fluorohexyl)oxy)-4-(1-methyl-1,2,5,6-tetrahydropyridin-3-yl)-1,2,5-thiadiazole]
711 µL/min/mg	2%	10 min	> 10 µM	7%		CN1CCC=C(c2nsnc2OCCCCC(C)(F)F)C1 [Example 8, 3-((5,5-Difluorohexyl)oxy)-4-(1-methyl-1,2,5,6-tetrahydropyridin-3-yl)-1,2,5-thiadiazole]
576 µL/min/mg	3%	12 min	> 10 µM	2%		CCC(F)(F)CCCOc1nsnc1C1=CCCN(C)C1 [Example 9, 3-((4,4-Difluorohexyl)oxy)-4-(1-methyl-1,2,5,6-tetrahydropyridin-3-yl)-1,2,5-thiadiazole]
2000 µL/min/mg	7%	3 min	> 10 µM	3%		CCCCC(F)(F)COc1nsnc1C1=CCCN(C)C1 [Example 11, 3-((2,2-Difluorohexyl)oxy)-4-(1-methyl-1,2,5,6-tetrahydropyridin-3-yl)-1,2,5-thiadiazole]
